Tests used:
[1] = biological target: T1, Peregrin (Homo sapiens) (UniProt P55201); settings: Compound concentration 20.0 uM, Protein concentration 2.0 uM, Result type QC Liability
T1 sequence (whole entry): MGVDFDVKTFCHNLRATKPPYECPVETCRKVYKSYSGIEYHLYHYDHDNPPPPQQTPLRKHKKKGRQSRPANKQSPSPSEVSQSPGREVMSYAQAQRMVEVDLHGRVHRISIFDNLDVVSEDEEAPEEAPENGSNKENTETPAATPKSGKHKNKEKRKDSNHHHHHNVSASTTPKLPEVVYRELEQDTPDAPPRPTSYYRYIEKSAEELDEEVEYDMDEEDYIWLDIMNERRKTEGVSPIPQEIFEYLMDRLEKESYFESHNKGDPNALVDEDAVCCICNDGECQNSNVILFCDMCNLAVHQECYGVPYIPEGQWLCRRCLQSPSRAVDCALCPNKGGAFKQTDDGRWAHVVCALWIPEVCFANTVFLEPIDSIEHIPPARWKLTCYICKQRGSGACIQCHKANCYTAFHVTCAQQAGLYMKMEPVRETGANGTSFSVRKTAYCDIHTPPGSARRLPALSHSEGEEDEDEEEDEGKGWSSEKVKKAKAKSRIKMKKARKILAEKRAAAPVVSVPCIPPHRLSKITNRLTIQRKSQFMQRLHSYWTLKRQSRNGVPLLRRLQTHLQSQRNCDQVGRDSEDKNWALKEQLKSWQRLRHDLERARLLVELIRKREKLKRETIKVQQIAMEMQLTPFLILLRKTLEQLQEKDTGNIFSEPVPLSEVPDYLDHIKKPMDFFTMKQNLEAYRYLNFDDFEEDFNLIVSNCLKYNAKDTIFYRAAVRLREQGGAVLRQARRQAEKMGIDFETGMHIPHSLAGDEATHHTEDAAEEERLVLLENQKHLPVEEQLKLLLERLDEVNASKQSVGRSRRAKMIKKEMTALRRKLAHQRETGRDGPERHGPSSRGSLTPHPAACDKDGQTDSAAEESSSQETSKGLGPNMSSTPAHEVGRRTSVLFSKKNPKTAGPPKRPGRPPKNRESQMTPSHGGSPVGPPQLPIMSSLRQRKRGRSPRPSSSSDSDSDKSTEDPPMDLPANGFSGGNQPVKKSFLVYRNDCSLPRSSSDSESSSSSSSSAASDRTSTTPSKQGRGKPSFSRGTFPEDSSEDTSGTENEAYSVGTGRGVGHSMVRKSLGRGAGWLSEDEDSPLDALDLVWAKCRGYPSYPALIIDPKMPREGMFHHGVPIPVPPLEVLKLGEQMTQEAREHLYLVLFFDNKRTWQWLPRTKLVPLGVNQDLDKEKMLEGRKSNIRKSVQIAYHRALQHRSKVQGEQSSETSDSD

[2] = biological target: Fibroblast growth factor receptor 3 (Homo sapiens) (UniProt P22607); settings: Compound concentration 20.0 uM, Protein concentration 2.0 uM, Result type QC Liability
Chain of Fibroblast growth factor receptor 3 (Homo sapiens) (P22607 23-806 limits assumed): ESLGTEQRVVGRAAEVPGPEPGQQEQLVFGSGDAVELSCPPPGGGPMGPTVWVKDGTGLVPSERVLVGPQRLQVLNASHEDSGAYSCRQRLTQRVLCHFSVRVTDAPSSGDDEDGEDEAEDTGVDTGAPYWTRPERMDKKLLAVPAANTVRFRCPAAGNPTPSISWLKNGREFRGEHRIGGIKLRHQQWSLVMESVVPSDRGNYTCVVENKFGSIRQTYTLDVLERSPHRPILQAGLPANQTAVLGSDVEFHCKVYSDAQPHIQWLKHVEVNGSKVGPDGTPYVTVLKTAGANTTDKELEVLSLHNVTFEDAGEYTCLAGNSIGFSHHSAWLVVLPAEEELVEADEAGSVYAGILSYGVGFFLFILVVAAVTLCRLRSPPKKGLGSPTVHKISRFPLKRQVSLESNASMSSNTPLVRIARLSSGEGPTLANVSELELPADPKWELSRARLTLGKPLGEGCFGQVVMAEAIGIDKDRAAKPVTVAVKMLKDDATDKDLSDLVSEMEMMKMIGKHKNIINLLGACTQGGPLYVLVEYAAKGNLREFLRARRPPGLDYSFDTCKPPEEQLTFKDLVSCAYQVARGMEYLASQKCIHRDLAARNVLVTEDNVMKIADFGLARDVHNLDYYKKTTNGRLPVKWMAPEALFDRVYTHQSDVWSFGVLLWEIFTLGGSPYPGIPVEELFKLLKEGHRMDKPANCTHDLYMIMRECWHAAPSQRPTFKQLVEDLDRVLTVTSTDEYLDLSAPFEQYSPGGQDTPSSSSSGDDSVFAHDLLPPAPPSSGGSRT
Description: Thermal Shift Assay. Domain: start/stop: P449-E759

Row | SMILES | ΔTm [1] [°C] | ΔTm [2] [°C] | ΔTm ([1]; tested as the 2H-labelled form) [°C] | ΔTm ([2]; tested as the 2H-labelled form) [°C]
1 | C#Cc1cnc2[nH]cc(-c3cccc4c3CCN4C(=O)[C@@H]3CCCN3C#N)c2c1 | -12.9 | 3.57 | – | –
2 | COc1cc(C(=O)NC2CCN(C)CC2)ccc1Nc1ncc(C(F)(F)F)c(NCc2ccc(C)cc2N(C)S(C)(=O)=O)n1 | -1.4 | 2.55 | – | –
3 | COc1cc(C(=O)NC2CCN(C)CC2)ccc1Nc1ncc2c(n1)N(C1CCCC1)CC(F)(F)C(=O)N2C | 1.14 | 0.42 | – | –
4 | CC1(C)Oc2ncnc(N)c2N=C1c1ccc([C@H]2CC[C@H](CC(=O)O)CC2)cc1 | -2.72 | 0.43 | – | –
5 | CN(C)[C@H]1C[C@H](n2cnc(-c3ccc(F)cn3)c2-c2ccnc3[nH]ccc23)C1 | -0.35 | 0.61 | – | –
6 | CC[C@@H](C(=O)OC)n1c(=O)c2ccccc2n(Cc2cn(C)c3cccc(C)c23)c1=O | -3.31 | 1.21 | – | –
7 | O=C(O)c1cccc(C2=C(c3cc(Cl)ccc3OCc3ccc(F)cc3F)CCC2)n1 | -5.87 | -0.33 | – | –
8 | Cc1c(NC(=O)c2ccc(C(C)(C)C)cc2)cccc1-c1cn(C)c(=O)c(Nc2ccc(C(=O)N3CCOCC3)cc2)n1 | -4.33 | 0.54 | – | –
9 | CN[C@@H]1CC[C@@H](c2ccc(Cl)c(Cl)c2)c2ccccc21 | -1.62 | 0.61 | – | –
10 | CN[C@@H](C)C(=O)N[C@H](C(=O)N1CCC[C@H]1c1nc(C(=O)c2ccc(F)cc2)cs1)C1CCCCC1 | -1.91 | 0.96 | – | –
11 | CCN1C(=O)N(c2c(F)c(OC)cc(OC)c2F)Cc2cnc3[nH]c(CN4CCOCC4)cc3c21 | -0.68 | 11.8 | – | –
12 | N=C(N)NCCC[C@H](NC(=O)C(c1ccccc1)c1ccccc1)C(=O)NCc1ccc(CNC(N)=O)cc1 | -1.9 | 0.81 | – | –
13 | CCN1C(=O)c2cc(C)ccc2N(C)c2ncccc21 | -1.83 | 0.59 | – | –
14 | CC#CCC(C)[C@H](O)/C=C/[C@@H]1[C@H]2C/C(=C/CCCC(=O)O)C[C@H]2C[C@H]1O (stereo not given in full) | -2.03 | 0.4 | – | –
15 | CN1Cc2nccc(-c3cn(C)nc3-c3ccc(F)cc3)c2C1=O | -1.84 | 0.27 | – | –
16 | CN(C(=O)c1ccccc1)c1ccc2c(c1)[nH]/c(=N\C(=O)c1ccc(Br)s1)n2CCC(N)=O | -2.4 | 4.52 | – | –
17 | C=CC(=O)Nc1ccc(C(=O)Nc2[nH]nc3c2CN(C(=O)N[C@H](CN(C)C)c2ccccc2)C3(C)C)cc1 | -0.82 | 7.32 | – | –
18 | Cn1cc(Nc2nccc(N3CC4CCC(C3)N4C(=O)[C@@H]3CC3(F)F)n2)cn1 | -0.71 | 2.58 | – | –
19 | CC(C)(c1ccc(OCc2cccc(COc3ccc(C(=N)N)cc3)c2)cc1)c1ccc(O[C@@H]2O[C@H](C(=O)O)[C@@H](O)[C@H](O)[C@H]2O)cc1 | -6.79 | -5.02 | – | –
20 | O[C@]1(C(F)(F)F)CCCC[C@H]1Nc1ccc(F)cc1 | 0.24 | 0.58 | – | –
21 | Cc1cc2ncnn2cc1Nc1ncc2c(n1)n(C1CCOCC1)c(=O)n2C | -4.35 | 0.53 | – | –
22 | CCCc1c(OCCCOc2ccc(OCC(=O)O)cc2)ccc(C(C)=O)c1O | -1.78 | 0.12 | – | –
23 | CN(C)CCC[C@@]1(c2ccc(F)cc2)OCc2cc(C#N)ccc21 | -3.08 | 0.45 | – | –
24 | C[C@H](NC(=O)c1cc(Cl)ccc1Oc1ccc(F)cc1)c1ccc(C(=O)O)cc1 | -3.01 | 0.47 | – | –
25 | CCS(=O)(=O)c1ccc(OC)c(Nc2ncc(-c3cccc(F)c3)o2)c1 | -1.63 | 3.6 | – | –

Row | SMILES | ΔTm [1] [°C] | ΔTm [2] [°C] | ΔTm ([1]; tested as the 2H-labelled form) [°C] | ΔTm ([2]; tested as the 2H-labelled form) [°C]
26 | Cn1cnc(Cn2ccc3ccc(CNCc4[nH]c5ccccc5c4[C@H]4NC(=O)c5ccc(O)cc54)cc32)c1 | -2.61 | 0.57 | – | –
27 | COc1nc2ccc([C@@](O)(c3ccc(Cl)cc3)c3cncn3C)cc2c(Cl)c1Cc1ccc(-n2cccn2)cc1 | -1.33 | -1.77 | – | –
28 | COc1cc(O)c(C(CC(=O)N2C[C@H](C)C[C@H](C)C2)c2ccc3c(c2)OCO3)c(OC)c1 (stereo not given in full) | 1.95 | 0.97 | – | –
29 | Cc1cc(OC2CCS(=O)(=O)CC2)cc(C)c1-c1cccc(COc2ccc(CCC(=O)O)c(F)c2)c1 | -4.37 | 0.31 | – | –
30 | Cc1cc(OCCC(C)(C)O)cc(C)c1-c1ccc(F)c2c1CC[C@H]2Oc1ccc2c(c1)OC[C@H]2CC(=O)O | -15.3 | -2.24 | – | –
31 | CO[C@H]1C[C@@H]2CC[C@@H](C)[C@@](O)(O2)C(=O)C(=O)N2CCCC[C@H]2C(=O)O[C@H]([C@H](C)C[C@@H]2CC[C@@H](O)[C@H](OC)C2)CC(=O)[C@H](C)/C=C(\C)[C@@H](O)[C@@H](OC)C(=O)[C@H](C)C[C@H](C)/C=C/C=C/C=C/1C | -1.78 | 0.26 | – | –
32 | COc1cc(-c2cncc(-c3ccc(N4CCN(C(C)C)CC4)cc3)c2C)cc(F)c1C(=O)N1CCCC1 | -1.67 | 0.64 | – | –
33 | N=C(N)Nc1cc(C2CCNCC2)cc(C(F)(F)F)c1 | -2.37 | 0.42 | – | –
34 | COc1ccccc1S(=O)(=O)Nc1ccc2c(c1)CN(C)C(=O)N2 | 1.73 | 0.61 | – | –
35 | O=C(Nc1ccnc(NC(=O)C2CC2)c1)c1c(Cl)cccc1Cl | -1.28 | 3.21 | – | –
36 | C[C@@H]1CC[C@@]2(OC1)O[C@H]1[C@@H](O)[C@H]3[C@@H]4CC[C@H]5C[C@@H](O[C@@H]6O[C@H](CO)[C@H](O[C@@H]7O[C@H](CO)C(O)[C@H](O[C@@H]8OC[C@@H](O)[C@H](O)[C@H]8O)[C@H]7O[C@@H]7O[C@H](CO)[C@H](O)[C@H](O[C@@H]8O[C@H](CO)[C@@H](O)[C@H](O)[C@H]8O)[C@H]7O)[C@H](O)[C@H]6O)[C@H](O)C[C@]5(C)[C@H]4CC[C@]3(C)[C@H]1[C@@H]2C (stereo not given in full) | -1.35 | 0.72 | – | –
37 | COc1ccc(S(=O)(=O)N2CCOCC2)cc1Nc1ccc2c(n1)N(C1CCN(C)CC1)[C@H](C)C(=O)N2C | 1.52 | 0.38 | – | –
38 | CCn1c(-c2nonc2N)nc2ccccc21 | -1.24 | 0.81 | – | –
39 | CCn1c(-c2nonc2N)nc2cncc(C(=O)N3CC[C@H](N)C3)c21 | -1.78 | 0.35 | – | –
40 | Nc1nccc(-c2c(-c3ccc(F)cc3)ncn2C2CCCCC2)n1 | -0.2 | 0.92 | – | –
41 | CN1CCN(C(=O)Cc2ccc(N/C(=C3\C(=O)Nc4cc(Cl)ccc43)c3ccccc3)cc2)CC1 | -2.46 | 5.68 | – | –
42 | COc1ccc(CC[C@@H](OC(=O)[C@@H]2CCCCN2C(=O)[C@H](c2cc(OC)c(OC)c(OC)c2)C2CCCCC2)c2cccc(OCCN3CCOCC3)c2)cc1OC | -5.77 | -3.93 | – | –
43 | CN1C(=O)Cc2ccc(-c3ccc(C[C@@H](C#N)NC(=O)[C@@H]4N[C@H]5CC[C@@H]4C5)c(F)c3)cc21 | 1.91 | 0.66 | – | –
44 | O=C(O)c1cc(-c2ccccc2)ccc1O | -0.36 | 0.62 | – | –
45 | COc1ccccc1[C@@H]1CNCCC12CCN(C(=O)[C@](OC)(c1ccccc1)C(F)(F)F)CC2 | -1.57 | 0.45 | – | –
46 | COC(=O)Nc1nc2c(s1)-c1c(c(-c3cccnc3)nn1-c1ccc(C3(N(C)C)CC3)cc1)CC2 | -1.72 | 1.4 | – | –
47 | COc1cnccc1Nc1nc(-c2nn(Cc3c(F)cc(OCCO)cc3F)c3ccccc23)ncc1OC | -6.89 | -7.58 | – | –
48 | CNC(=O)c1nnc(NC(=O)C2CC2)cc1Nc1cccc(-c2ncn(C)n2)c1OC | – | – | -1.46 | 1.05
49 | Cc1nnc2n1-c1sc(CCC(=O)N3CCOCC3)cc1C(c1ccccc1Cl)=NC2 | -2.21 | 1.44 | – | –
50 | C[C@@H]1C[C@H](C)CN(c2ncc(Cl)c(Nc3ccc4c(c3)cc(OC(C)(C)C(=O)O)c(=O)n4C)n2)C1 | -3.96 | 0.41 | – | –

From ChEMBL document CHEMBL5308504, “Tm Shift (DSF) assay results for EUbOPEN Chemogenomics Library” (2023)
